# Assay results: patent US6737383B1, “Herbicidal oxadiazolidines” (priority 1999, dated 2004)
# Experiments:
# purple nutsedge = test: Test B pre/postemergence purple nutsedge; format: in vivo, Cyperus rotundus
# In short: (§1)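 Response is a visual 0-to-10 score relative to untreated plants, where 0 means no effect and 10 means complete control, taken twelve to sixteen days after application. Treatments went onto soil at planting and onto foliage of 1- to 4-leaf plants, using a surfactant-containing non-phytotoxic solvent.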
# surinam grass = test: Test B pre/postemergence surinam grass; format: in vivo, Brachiaria decumbens
# In short: as §1
# cocklebur = test: Test B pre/postemergence cocklebur; format: in vivo, Xanthium strumarium
# In short: as §1
# corn = test: Test B pre/postemergence corn; format: in vivo, Zea mays
# In short: as §1
# bedstraw = test: Test B pre/postemergence bedstraw; format: in vivo, Galium aparine
# In short: as §1
# giant foxtail = test: Test B pre/postemergence giant foxtail; format: in vivo, Setaria faberii
# In short: as §1
# sugar beet = test: Test B pre/postemergence sugar beet; format: in vivo, Beta vulgaris
# In short: as §1
# pigweed = test: Test B pre/postemergence pigweed; format: in vivo, Amaranthus retroflexus
# In short: as §1
# velvetleaf = test: Test B pre/postemergence velvetleaf; format: in vivo, Abutilon theophrasti
# In short: as §1
# morningglory = test: Test B pre/postemergence morningglory; format: in vivo, Ipomoea hederacea
# In short: as §1
# rice = test: Test B flood test rice; format: in vivo, Oryza sativa; conditions: Pre-emergence
# In short: (§2)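 Flood test on plants grown to the 2-leaf stage; treated plants kept in greenhouse twelve to sixteen days, then visually rated against controls on a 0 (no effect) to 10 (complete control) scale.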
# bamyardgrass = test: Test B flood test barnyardgrass; format: in vivo, Echinochloa crus-galli; conditions: Pre-emergence
# In short: as §2
# blackgrass = test: Test B pre/postemergence blackgrass; format: in vivo, Alopecurus myosuroides
# In short: as §1
# rape = test: Test B pre/postemergence rape; format: in vivo, Brassica napus
# In short: as §1
# duck salad = test: Test B flood test duck salad; format: in vivo, Heteranthera limosa; conditions: Pre-emergence
# In short: as §2
# [1] = Postemergence, Rate 1000 g/ha, scale 0 to 10 (0 no effect, 10 complete control)
# [2] = Preemergence, Rate 250 g/ha, scale of 0 to 10 where 0 is no effect and 10 is complete control
# [3] = Preemergence, Rate 500 g/ha, scale of 0 to 10 where 0 is no effect and 10 is complete control
# [4] = Rate 125 g/ha, Postemergence, scale of 0 to 10 where 0 is no effect and 10 is complete control
# [5] = Rate 125 g/ha, Preemergence, scale of 0 to 10 where 0 is no effect and 10 is complete control
# [6] = Rate 250 g/ha, Postemergence, scale of 0 to 10 where 0 is no effect and 10 is complete control
# [7] = Rate 500 g/ha, Postemergence, scale 0 to 10, 0 no effect, 10 complete control
# [8] = Rate 1000 g/ha, Preemergence, scale 0 to 10 (0 no effect, 10 complete control)
# [9] = Rate 1000 g/ha, scale 0 to 10 (0 no effect, 10 complete control)
# [10] = Rate 125 g/ha, flood test species, scale 0 to 10 where 0 is no effect and 10 is complete control
# [11] = Rate 250 g/ha, flood-test species, scale 0 to 10, 0 is no effect, 10 is complete control
# [12] = Rate 500 g/ha, flood test species, scale 0 to 10 (0 no effect, 10 complete control)
compound,measurement,setting,value
CCOC(=O)C(C)N(C(=O)n1oc(=O)n(C2CCCCC2)c1=O)c1ccc(F)cc1 (stereo not drawn) [Compound 280],Nutsedge plant response rating,purple nutsedge; [1],0
same,Nutsedge plant response rating,purple nutsedge; [2],0
same,"Plant response rating, Nutsedge",purple nutsedge; [3],0
same,Nutsedge plant response rating,purple nutsedge; [4],0
same,Nutsedge plant response rating,purple nutsedge; [5],0
same,"Plant response rating, Nutsedge",purple nutsedge; [6],0
same,Nutsedge plant response rating,purple nutsedge; [7],0
same,"Plant response rating, Nutsedge",purple nutsedge; [8],0
same,B. signalgrass plant response rating,surinam grass; [1],0
same,B. signalgrass plant response rating,surinam grass; [2],0
same,"Plant response rating, B. signalgrass",surinam grass; [3],0
same,B. signalgrass plant response rating,surinam grass; [4],0
same,B. signalgrass plant response rating,surinam grass; [5],0
same,"Plant response rating, B. signalgrass",surinam grass; [6],0
same,B. signalgrass plant response rating,surinam grass; [7],0
same,"Plant response rating, B. signalgrass",surinam grass; [8],0
same,Cocklebur plant response rating,cocklebur; [1],0
same,Cocklebur plant response rating,cocklebur; [2],0
same,"Plant response rating, Cocklebur",cocklebur; [3],0
same,Cocklebur plant response rating,cocklebur; [4],0
same,Cocklebur plant response rating,cocklebur; [5],0
same,"Plant response rating, Cocklebur",cocklebur; [6],0
same,Cocklebur plant response rating,cocklebur; [7],0
same,"Plant response rating, Cocklebur",cocklebur; [8],0
same,Corn plant response rating,corn; [1],0
same,Corn plant response rating,corn; [2],0
same,"Plant response rating, Corn",corn; [3],0
same,Corn plant response rating,corn; [4],0
same,Corn plant response rating,corn; [5],0
same,"Plant response rating, Corn",corn; [6],0
same,Corn plant response rating,corn; [7],0
same,"Plant response rating, Corn",corn; [8],0
same,Bedstraw plant response rating,bedstraw; [1],0
same,Bedstraw plant response rating,bedstraw; [2],0
same,"Plant response rating, Bedstraw",bedstraw; [3],0
same,Bedstraw plant response rating,bedstraw; [4],0
same,Bedstraw plant response rating,bedstraw; [5],0
same,"Plant response rating, Bedstraw",bedstraw; [6],0
same,Bedstraw plant response rating,bedstraw; [7],0
same,"Plant response rating, Bedstraw",bedstraw; [8],0
same,Giant foxtail plant response rating,giant foxtail; [1],0
same,Giant foxtail plant response rating,giant foxtail; [2],0
same,"Plant response rating, Giant foxtail",giant foxtail; [3],0
same,Giant foxtail plant response rating,giant foxtail; [4],0
same,Giant foxtail plant response rating,giant foxtail; [5],0
same,"Plant response rating, Giant foxtail",giant foxtail; [6],0
same,Giant foxtail plant response rating,giant foxtail; [7],0
same,"Plant response rating, Giant foxtail",giant foxtail; [8],0
same,Sugarbeets plant response rating,sugar beet; [1],0
same,Sugarbeets plant response rating,sugar beet; [2],0
same,"Plant response rating, Sugarbeets",sugar beet; [3],0
same,Sugarbeets plant response rating,sugar beet; [4],0
same,Sugarbeets plant response rating,sugar beet; [5],0
same,"Plant response rating, Sugarbeets",sugar beet; [6],0
same,Sugarbeets plant response rating,sugar beet; [7],0
same,"Plant response rating, Sugarbeets",sugar beet; [8],0
same,Redroot pigweed plant response rating,pigweed; [1],3
same,Redroot pigweed plant response rating,pigweed; [2],0
same,"Plant response rating, Redroot pigweed",pigweed; [3],0
same,Redroot pigweed plant response rating,pigweed; [4],0
same,Redroot pigweed plant response rating,pigweed; [5],0
same,"Plant response rating, Redroot pigweed",pigweed; [6],0
same,Redroot pigweed plant response rating,pigweed; [7],1
same,"Plant response rating, Redroot pigweed",pigweed; [8],0
same,Velvetleaf plant response rating,velvetleaf; [1],0
same,Velvetleaf plant response rating,velvetleaf; [2],0
same,"Plant response rating, Velvetleaf",velvetleaf; [3],0
same,Velvetleaf plant response rating,velvetleaf; [4],0
same,Velvetleaf plant response rating,velvetleaf; [5],0
same,"Plant response rating, Velvetleaf",velvetleaf; [6],0
same,Velvetleaf plant response rating,velvetleaf; [7],0
same,"Plant response rating, Velvetleaf",velvetleaf; [8],0
same,Morningglory plant response rating,morningglory; [1],0
same,Morningglory plant response rating,morningglory; [2],0
same,"Plant response rating, Morningglory",morningglory; [3],0
same,Morningglory plant response rating,morningglory; [4],0
same,Morningglory plant response rating,morningglory; [5],0
same,"Plant response rating, Morningglory",morningglory; [6],0
same,Morningglory plant response rating,morningglory; [7],0
same,"Plant response rating, Morningglory",morningglory; [8],0
same,Rice plant response rating,rice; [9],0
same,Rice plant response rating,rice; [10],0
same,Rice plant response rating,rice; [11],0
same,Rice plant response rating,rice; [12],0
same,Barnyardgrass plant response rating,bamyardgrass; [9],0
same,Barnyardgrass plant response rating,bamyardgrass; [10],0
same,Barnyardgrass plant response rating,bamyardgrass; [11],0
same,Barnyardgrass plant response rating,bamyardgrass; [12],0
same,Blackgrass plant response rating,blackgrass; [1],0
same,Blackgrass plant response rating,blackgrass; [2],0
same,"Plant response rating, Blackgrass",blackgrass; [3],0
same,Blackgrass plant response rating,blackgrass; [4],0
same,Blackgrass plant response rating,blackgrass; [5],0
same,"Plant response rating, Blackgrass",blackgrass; [6],0
same,Blackgrass plant response rating,blackgrass; [7],0
same,"Plant response rating, Blackgrass",blackgrass; [8],0
same,Rape plant response rating,rape; [1],0
same,Rape plant response rating,rape; [2],0
same,"Plant response rating, Rape",rape; [3],0
same,Rape plant response rating,rape; [4],0
same,Rape plant response rating,rape; [5],0
same,"Plant response rating, Rape",rape; [6],0
same,Rape plant response rating,rape; [7],0
same,"Plant response rating, Rape",rape; [8],0
same,Ducksalad plant response rating,duck salad; [9],0
same,Ducksalad plant response rating,duck salad; [10],0
same,Ducksalad plant response rating,duck salad; [11],0
same,Ducksalad plant response rating,duck salad; [12],0
